≈ marks a conversion by molar mass, not a printed value.
Details: buffer; pH 7.4; 200.0 µM

SMILES	solubility kinetic [µg/mL]
CNC(=O)C(NC(=O)c1ccccc1)=C(C)C	> 34.8
CC#CC[N+](C)(C)CCCCCCCC.[Br-]	> 43.5
CC(=O)/C(C=Nc1noc(C)c1Br)=C(\C)O	37.6 (≈ 131 µM)
O=[N+]([O-])c1ccc2c(c1)nc(CO)n2Cc1ccccc1	9.3 (≈ 32.8 µM)
Cc1cccc(-c2nc(Nc3ccc(O)cc3)c3ccccc3n2)c1	5.8 (≈ 17.7 µM)
CN(C)c1ccc(C(=O)N2CCCC2)cc1	> 32.7
Cc1ccc[n+](CC(=O)Nc2ccc(Cl)c([N+](=O)[O-])c2)c1.[Cl-]	> 51.3
Cc1c(Cl)cccc1NC(=O)CSC(N)=O	15.6 (≈ 60.3 µM)
COc1ccc(C)cc1NCc1ccc([N+](=O)[O-])cc1	3.1 (≈ 11.4 µM)
C=CC[n+]1c(C)csc1Nc1cccc(Br)c1.[Br-]	3.3
O=C1CNC(=S)N1CCCn1ccnc1	31.5 (≈ 140 µM)
Nc1ccc(-c2ncc(-c3ccccc3)o2)cc1	4.3 (≈ 18.2 µM)
COc1ccc(N(CC2CO2)S(=O)(=O)c2ccc(C)cc2)cc1 (stereo not given)	49 (≈ 147 µM)
Cn1ncc(Cl)c1C(=O)NC1CCCC1	> 34.2
CC(C)c1ccc(OCC(=O)NC2CCCC2)cc1	30.2 (≈ 116 µM)
Cc1cc(C)c2c(CC(=O)NN(C)C)coc2c1	> 36.9
Cc1cc(C(=O)COc2ccccc2C(N)=O)c(C)n1C	2.5 (≈ 8.73 µM)
CCCc1cc(C(=O)Nc2ccc(Cl)cn2)cs1	0.7 (≈ 2.49 µM)
CC(=O)n1c(-c2ccccc2)c(-c2ccccc2)n(C)c1=O	> 43.9
O=C(NCCO)/C(=C/c1ccco1)NC(=O)c1ccco1	43.3 (≈ 149 µM)

SMILES	solubility kinetic [µg/mL]
CC(OC(=O)c1ccc(Cl)cc1)C(=O)NCC1CCCCC1 (stereo not given)	13.8 (≈ 42.6 µM)
CCCC/C(O)=C1\C(=O)CC(C)(C)CC1=Nc1ccc(N)cc1	> 47.2
Cc1ccc(CC(=O)O/N=C(\N)c2ccncc2)cc1	18.1 (≈ 67.2 µM)
CSc1nc(N(C)C)nc(N(C)C#N)n1	> 33.6
Cc1ccc(N(C)S(=O)(=O)c2csc(C(N)=O)c2)cc1C	43.8 (≈ 135 µM)
COc1ccc(-c2cc(C(=O)N3CCOCC3)no2)cc1	> 43.2
COc1ccc(CN2CCC(C)CC2)cc1OCc1ccccc1	45.3 (≈ 139 µM)
O=C(Nc1ccc2nccnc2c1)Nc1ccccc1Cl	1 (≈ 3.35 µM)
O=C(NCCc1ccccc1)c1ccc2c(c1)OCCO2	> 42.5
O=C(Nc1ccccc1)Nc1nc(-c2ccccc2)cs1	< 0.2
Cc1ccc2nc(-c3ccccc3C)oc(=O)c2c1	< 0.5
Cc1c(C(=O)N2CCCCC2)oc2ccccc12	32 (≈ 132 µM)
CCCCOc1ccc(OCCNC(=O)c2ccco2)cc1	22.5 (≈ 74.2 µM)
Cc1cc(NC(=O)c2ccc(NC(=O)C3CC3)cc2)no1	8.8 (≈ 30.8 µM)
c1ccc(CSc2nc3ncccn3n2)cc1	> 36.3
O=C(Oc1ccc(F)cc1)N1CCOCC1	> 33.8
NS(=O)(=O)c1cccc(NC(=O)Nc2ccc(Cl)cc2)c1	10.7 (≈ 32.8 µM)
COc1ccc(S(=O)(=O)N2CCC(C(=O)NC3CC3)CC2)cc1	> 50.8
COc1ccc(N2CCN(C(=O)c3cc4c(s3)CCCCC4)CC2)cc1	5.3 (≈ 14.3 µM)
CC(C)(C)NC(=O)N1CCN(c2nc3ccc(Cl)cc3s2)CC1	1.7 (≈ 4.82 µM)

SMILES	solubility kinetic [µg/mL]
Cc1cc(Br)ccc1NC(=S)NC1CCCC1	19.1 (≈ 61 µM)
COc1cc(C2/C(=C(\O)c3ccc4c(c3)OCCO4)C(=O)C(=O)N2Cc2ccco2)ccc1O (stereo not given)	66.7 (≈ 144 µM)
CCOc1ccccc1NC(=S)NC(=O)CCc1ccccc1	< 0.4
Nc1cc(N)nc(SCC(=O)NCc2ccc3c(c2)OCO3)n1	> 50
NC(=O)c1ccc(NC(=O)COC(=O)c2cc3ccccc3cc2O)cc1	10.1 (≈ 27.7 µM)
CCOc1ccccc1NC(=O)c1ccc2[nH]c(C)c(C)c2c1	2.8 (≈ 9.08 µM)
O=C(Nc1cc(Cl)ccc1Cl)c1cc(-c2ccco2)on1	0.7 (≈ 2.17 µM)
CC(OC(=O)c1cccnc1)C(=O)Nc1ccc2c(c1)OCO2 (stereo not given)	44 (≈ 140 µM)
CCCN(CCC)C(=S)NC1CC2C=CC1C2 (stereo not given)	> 37.9
CN(C)c1ccc(C(=O)N=c2sccn2C)cc1[N+](=O)[O-]	1.4 (≈ 4.57 µM)
COc1ccc2c(c1OC)C(=O)N(c1cccc(NC(C)=O)c1)C2	46.6 (≈ 143 µM)
Cn1c(N)c(C(=O)COC(=O)Cc2ccccc2F)c(=O)n(C)c1=O	24.2 (≈ 69.3 µM)
Cc1cc(Oc2ccc(N)cn2)cc(C)c1Cl	27.6 (≈ 111 µM)
Cc1cccc(N2C(=O)/C(=C/N3CCN(C(=O)c4ccco4)CC3)C(=O)NC2=S)c1	2.6 (≈ 6.13 µM)
CCOC(=O)COc1ccccc1/C=C1\NC(=O)NC1=O	33 (≈ 114 µM)
CC(=O)/C(C#N)=C1\NC(=O)C(Cc2ccc(F)cc2)S1 (stereo not given)	> 43.5
CCOC(=O)c1c(C)oc2c1c(C=NC1CCS(=O)(=O)C1)c(O)c1ccccc12 (stereo not given)	< 0.9
S=C(Nc1ccc2c(c1)OCCO2)Nc1ccccc1Cl	> 48.1
CC1CCCC(NC(=O)c2cccs2)C1C (stereo not given)	23 (≈ 96.9 µM)
CCN(CC)CC(O)Cn1c(-c2cccc(Cl)c2)nc2cc(C)c(C)cc21 (stereo not given)	53.4 (≈ 138 µM)

— PubChem BioAssay AID1996
